According to patent publication US20040057943A1, “Probiotic strains, a process for the selection of them, compositions thereof, and their use” (priority 2002, published 2004):

System: Salmonella typhmurium and Escherichia coli
Assay: Production of antimicrobial metabolites, agar well diffusion assay
Assay type: cell-based
Conditions: pH 4.5; data not shown
Description: The probiotic strains of this invention were assessed for their capability to produce antimicrobial metabolites using an agar well diffusion assay. MRS agar plates containing 10^6 cfu/ml of different pathogenic bacteria strain (Salmonella typhmurium and Escherichia coli) were prepared. Wells, with a diameter of 5 mm, where then cut in the agar using a sterile cork-borer. Then, 50 μl of a 2 fold concentrate supernatant of each probiotic strain culture were added to the wells and allowed to diffuse into the agar during a 2 hours preincubation period at 4° C., followed by aerobic incubation of the plates at 37° C. for 16-18 hours. The antimicrobial activity of each supernatant was considered high if the diameter of the inhibition hallo for both pathogenic bacteria strains was >12, moderate between 8 and 12, and slight <8 (FIG. 11)
Moreover, it was also tested if the antimicrobial activity of the supernatants was due to a antimicrobial substance or to the production of metabolic acids. […] It was also tested the antimicrobial capabilities of supernatants obtained from bacterial cultures using glucose or lactose as a carbohydrate source.

Compound | Inhibitory effect of a dilution of metabolic acid on growth of Salmonella or E. coli
CC(=O)O [acetic] | None of these situations inhibited the growth
CCCC(=O)O [butyric, butyric acid] | None of these situations inhibited the growth
